# According to PubChem BioAssay AID2423 (Broad Institute, 2010):
# Records with an inconclusive call do not appear. Active and inactive are the calls of the source. No rule for the calls is given here.
# System: C. albicans CaCi-8 + fluconazole, Alamar Blue growth, 48 h
# Test: resistant C. albicans growth inhibition with fluconazole, dose response, CaCi-8 strain, Alamar Blue fluorescence (AID 2423)
row,SMILES,EC50
1,N#Cc1c(-c2ccc(Cl)cc2)cc(-c2ccccc2)nc1SCC(=O)O,1.2 µM
2,N#C/C(=C(/O)c1ccco1)c1nc2ccccc2[nH]1,0.676 µM
3,Cc1[nH]nc(-c2ccc(O)c(C)c2O)c1-c1cnn(-c2ccccc2)c1,3.96 µM
4,CC(C)NC(=S)N/N=C/c1ccc(C(C)(C)C)cc1,> 16 µM (inactive)
5,CCOc1cc(/C=N/NC(=O)c2cccnc2)ccc1OCC(N)=O,> 15 µM (inactive)
6,COCCn1c(=O)[nH]c(=O)c2cc(C(=O)c3cc(Cl)ccc3O)cnc21,1.28 µM
7,CCN1/C(=C/C(C)=C/c2sc3ccccc3[n+]2CC)Sc2ccccc21,< 0.12 µM
8,O=C(CCN1CCN(c2ccccc2)CC1)N/N=C/c1ccc(O)c(O)c1O,4.02 µM
9,O=C(NNC(=S)NC1CCCCC1)c1ccccc1Br,> 16 µM (inactive)
10,O=C(Oc1c(CN2CCOCC2)cc(Cl)c2cccnc12)c1ccccc1,2.65 µM
11,OC(COc1ccc2c(c1)OCO2)CN1CCCC1 (stereo not drawn),> 15 µM (inactive)
12,CCn1c(NN=O)nc2ccccc21,7.38 µM
13,C/C(=N\NC(=O)CSCc1ccccc1Cl)c1cc(O)ccc1O,> 16 µM (inactive)
14,O=C(CSc1nc(-c2ccccc2)cs1)Nc1nccs1,> 16 µM (inactive)
15,CC(NC(=O)Nc1ccccc1F)C(C)(C)C (stereo not drawn),> 16 µM (inactive)
16,CC(C)(C)c1ccc(SCC(N)=O)cc1,> 15 µM (inactive)
17,CCN(CC)c1ccc2cc(S(=O)(=O)c3ccc(C)cc3)c(=O)oc2c1,0.657 µM
18,C[N+]1(CC(=O)OC2CCCCCCCCCCC2)CCCC1,4.94 µM
19,CS/C(=N\S(=O)(=O)c1cccs1)Nc1ccc(Cl)cc1,1.2 µM
20,COc1ccc(C(=O)Oc2c(CN3CCOCC3)cc(Cl)c3cccnc23)cc1,9.17 µM
21,COc1cc(OC)cc(N(C(=O)C2COc3ccccc3O2)C(C(=O)NC2CCCCC2)c2ccc(O)cc2)c1 (stereo not drawn),> 16 µM (inactive)
22,CC1(O)CC(c2ccc(Cl)cc2)=NN1C(=O)c1ccc([N+](=O)[O-])cc1 (stereo not drawn),3.21 µM
23,Cc1nn(-c2ccccc2)c(Cl)c1/C=C/C(=O)c1ccc(O)cc1,1.64 µM

row,SMILES,EC50
1,O=C1c2ccccc2C(=O)c2c1cccc2N1CCCC1,> 16 µM (inactive)
2,CCc1ccc(/C=C2/SC(=S)N(CCCC(=O)Nc3ccccc3C(=O)O)C2=O)cc1,0.982 µM
3,CCCOCc1ccc(O)c2ncccc12,2.17 µM
4,CC(=O)Nc1ccc(N2CC(C)(C)C2=O)cc1,> 15 µM (inactive)
5,O=C(c1cc(COc2cccc(C(F)(F)F)c2)on1)N1CCC(c2ccncc2)CC1,2.54 µM
6,Cn1c(/C=N/Nc2nc3ccccc3[nH]2)nc2ccccc21,> 16 µM (inactive)
7,O=Cc1cc(N=Nc2ccccc2Cl)ccc1O,6.39 µM
8,COC(=O)c1c(C(=O)OC)c(-c2ccc(Cl)c(Cl)c2)n2c1CCC2,8.98 µM
9,CCN(CC)S(=O)(=O)c1ccc(N/N=C/c2ccc(O)cc2O)nc1,0.644 µM
10,O=C(COc1ccc(Cl)cc1)NC1CCSC1=O (stereo not drawn),> 16 µM (inactive)
11,CCc1cc(-c2n[nH]c(=S)n2-c2ccccc2C)cs1,0.415 µM
12,CCCOC(=O)/C(=C\c1ccc([N+](=O)[O-])o1)NC(=O)c1ccccc1,> 16 µM (inactive)
13,C=CCOC(=O)c1sc(NC(=O)c2ccco2)nc1C,0.348 µM
14,O=c1[nH]c(Nc2ccc3c(c2)OCCO3)nnc1Cc1ccccc1,> 16 µM (inactive)
15,CC[n+]1c(C=C2C=C(C)OC(C)=C2)sc2ccccc21,2.08 µM
16,Cc1c(OCC(=O)NCC(O)c2ccccc2)ccc2c(-c3ccccc3)cc(=O)oc12 (stereo not drawn),1.26 µM
17,C=CCn1c(=N)n(CC(=O)c2cccc([N+](=O)[O-])c2)c2ccccc21,> 16 µM (inactive)
18,COc1ccc(-c2n[nH]c(C)c2-c2cnn(-c3ccccc3)c2)c(O)c1,9.76 µM
19,CCn1cc(/C=C/c2cc[n+](C)cc2)c2ccccc21,9.3 µM
20,CCn1nnnc1NC(=O)c1cc(Cl)c(OC)c(Cl)c1,5.45 µM
21,O=C(NC(c1ccc(Cl)cc1)c1cc(Cl)c2cccnc2c1O)c1cccnc1 (stereo not drawn),0.329 µM
22,Cn1c(O)c(/C=N/NC(=O)c2cc3ccccc3cc2O)c2ccccc21,5.35 µM
23,O=C(N/N=C\c1c(O)ccc2ccccc12)c1ccc(S(=O)(=O)N2CCCCC2)cc1,0.279 µM

row,SMILES,EC50
1,O=C(Nc1ccccc1N1CCOCC1)c1cc(F)cc(F)c1,2.66 µM
2,Cc1ccc2c(c1)c(/C=C/c1cc[n+](C)cc1)c(C)n2C,> 16 µM (inactive)
3,Cc1cccc(Sc2nc(-c3ccccc3)ncc2C(=O)O)c1,> 15 µM (inactive)
4,CCC(=O)NC(c1ccc(OC)cc1)c1cc(Cl)c2cccnc2c1O (stereo not drawn),0.976 µM
5,Cc1ccc(C2=NNC3(CCOC(C)(C)C3)S2)cc1 (stereo not drawn),14.8 µM
6,Brc1ccc(/C=C/C=N/Nc2nc3ccccc3s2)cc1,> 16 µM (inactive)
7,COCCCN1C(=O)C(=O)/C(=C(/O)c2ccc(OCC(C)C)cc2C)C1c1cccnc1 (stereo not drawn),> 15 µM (inactive)
8,CC(=O)c1cc(C#N)c(N2CCCC2)nc1C,> 16 µM (inactive)
9,CCOC(=O)c1ccc(NC(=O)c2ccc(CO)c(C(=O)NC3CCN(C(=O)OCC)CC3)c2)cc1,> 16 µM (inactive)
10,O=C(COc1ccc2c(c1)CCC2)N1CCN(c2cccc(C(F)(F)F)c2)CC1,> 16 µM (inactive)
11,CCN(CC)c1ccc(/C=N/NC(=O)c2cccc(S(=O)(=O)N3CCOCC3)c2)c(O)c1,0.513 µM
12,C(#Cc1ccccc1)C[N+]1(CC#Cc2ccccc2)CCCCC1,10.5 µM
13,CCCCOP(=O)(c1ccc(N(C)C)cc1)C(O)c1ccccc1F (stereo not drawn),4.66 µM
14,CCC(Oc1ccccc1)C(=O)Nc1ncc([N+](=O)[O-])s1 (stereo not drawn),> 16 µM (inactive)
15,O=C(N/N=C\c1cc(Cl)ccc1O)c1ccc(S(=O)(=O)N2CCCCC2)cc1,0.926 µM
16,O=C(Cc1ccccc1)N/N=C/c1cc(Br)cc(Cl)c1O,> 15 µM (inactive)
17,CCNC(=S)NNC(=O)c1cc(-c2cccc(C)c2)nc2ccccc12,2.27 µM
18,CC(=O)c1ncnn1CC(=O)c1ccc(Cl)cc1Cl,> 16 µM (inactive)
19,CN(C)c1ccc(/C=C/C=C/c2sc3ccccc3[n+]2C)cc1,1.74 µM
20,COc1ccc(-c2nn(-c3ccccc3)cc2/C=N/NC(=S)NC(C)C)cc1OC,1.89 µM
21,C/C(=N\N1C(=O)CSC1=S)c1ccc(Br)cc1,11.9 µM
22,COc1ccc(C(=O)C(CN2CCCC2)c2ccccc2)cc1 (stereo not drawn),> 16 µM (inactive)
23,O=C(Nc1cccc(-c2cn3c(n2)SCC3)c1)c1ccc(Br)o1,2.71 µM

row,SMILES,EC50
1,COc1ccc(/C=N/OCC(=O)Nc2nc3ccccc3s2)cc1,3.05 µM
2,CCc1ccccc1NC(=S)NNC(=O)c1ccccc1Cl,0.823 µM
3,Oc1c(CN2CCOCC2)cc(COCc2ccccc2)c2cccnc12,0.963 µM
4,Cc1cc(C(=O)NNC(=S)NC(C)c2ccccc2)c2ccccc2n1 (stereo not drawn),3.09 µM
5,CC(C)(C)C(=O)NC(=S)NNC(=O)C(c1ccccc1)c1ccccc1,2.16 µM
6,Cc1ccc(C(=O)CC(=O)c2ccc(C(C)(C)C)cc2)cc1,6.22 µM
7,Cc1cccc(C(=O)NC(=S)NNC(=O)Cc2ccccc2)c1,10.6 µM
8,C=CCN1C(=O)N/C(=C/c2ccc(N3CCOCC3)o2)C1=O,0.796 µM
9,O=C(Oc1c(Cl)cc(Cl)c2cccnc12)c1ccco1,0.465 µM
10,CCCc1ccc(Oc2cn[nH]c2-c2ccc(O)cc2O)cc1,8.05 µM
11,COc1ccccc1/C=C1\SC(=S)N(NS(=O)(=O)c2ccccc2)C1=O,1.11 µM
12,Cc1cc(Nc2ccc(Cl)cc2)nc(NCc2ccccc2)n1,5.16 µM
13,O=C(CC(NCCN1CCOCC1)C(=O)O)Nc1cccc(Cl)c1 (stereo not drawn),> 16 µM (inactive)
14,CC(C)n1c(N2CCN(C(=O)Nc3ccc(Cl)cc3)CC2)nc2ccccc21,> 15 µM (inactive)
15,COc1ccc(C(=O)On2c(-c3ccc(Br)cc3)nc3ccccc3c2=O)cc1,1.11 µM
16,CCn1c(/C=C/c2ccc([N+](=O)[O-])o2)nc2ccccc2c1=O,< 0.12 µM
17,O=C(Nc1nc(=O)c2ccccc2s1)c1ccccc1,> 15 µM (inactive)
18,COc1ccc(-n2c(-c3ccc(Br)cc3)c[n+]3c2SC(C)C3)cc1 (stereo not drawn),6.77 µM
19,O=C(N/N=C/c1cc(Br)c(O)c(Br)c1)c1cc2c(ccc3ccccc32)o1,0.915 µM
20,O=C(N/N=C/c1ccc(O)c(O)c1O)/C(=C/c1ccc([N+](=O)[O-])cc1)NC(=O)c1ccccc1,0.807 µM
21,CCN1/C(=C/c2ccc3cccc(C)c3[n+]2CC)Sc2ccccc21,< 0.12 µM
22,O=C(O)c1ccc(NC(=S)NC(=O)c2ccc(-c3ccccc3)cc2)cc1,3.35 µM
23,COc1cccc(CN2C(=O)C3(C(C#N)=C(N)OC4=C3C(=O)CCC4)c3ccccc32)c1 (stereo not drawn),2.15 µM

row,SMILES,EC50
1,Cc1ccc(C(=O)Cn2cccn2)cc1,12.7 µM
2,COc1ccc2[nH]c3c(C)c4ccncc4c(C)c3c2c1,1.44 µM
3,O=C(Nc1cccc(F)c1)c1ccc2ncsc2c1,2.35 µM
4,CCSc1ccc2cc(OC)ccc2[n+]1CC,4.71 µM
5,Nc1c2c(nc3sc4c(c13)CCCCC4)CCCCC2,5.55 µM
6,Cc1[nH]c2ccccc2c1/C=C/c1cc[n+](C)cc1,7.18 µM
7,CN(C/C=C/C#CC(C)(C)C)Cc1cccc2ccccc12,2.59 µM
8,O=C(N/N=C/c1ccc[nH]1)c1cc2ccccc2cc1O,3.94 µM
9,C/C(=N\NC(=O)c1cccc(N/N=C(\C)c2cc(O)ccc2O)c1)c1cc(O)ccc1O,> 15 µM (inactive)
10,CCOc1ccc2nc3cc(NCc4ccc(OC)cc4)ccc3c(N)c2c1,4.28 µM
11,COc1ccc(C(=O)NNC(=S)NC(=O)c2ccccc2)cc1,2.65 µM
12,[O-][n+]1cccc2c(Br)cc(Br)c(O)c21,0.652 µM
13,COc1ccc(-c2cc(=O)oc3cc(OC(=O)C4CCCCC4)c(Cl)cc23)cc1,1.12 µM
14,O=Nc1c(O)n(Cc2cccc(Cl)c2)c2ccccc12,1.2 µM
15,CN1CCN(C(=O)c2cnn(-c3ccccc3)c2NC(=O)c2ccccc2)CC1,> 15 µM (inactive)
16,O=CNCCCc1nc2ccccc2n1Cc1cccc2ccccc12,3.52 µM
17,COc1ccc(C(=O)NN/C(C)=C/C(=O)C(F)(F)C(F)(F)C(F)(F)F)cc1,5.05 µM
18,CCOc1ccc(NC(=O)c2cn(-c3ccc(OCC)cc3)c(=O)c3cc(OC)c(OC)cc23)cc1,0.485 µM
19,Cc1ccc(C(=O)NC(=O)OCCn2c(C)cnc2[N+](=O)[O-])cc1,> 16 µM (inactive)
20,Cc1c(O)cc2n(c1=O)-c1ccc(Cl)cc1C2(C)C,0.332 µM
21,COc1cc(OC)cc(C(=O)NNC(=O)c2cc3ccccc3cc2O)c1,9.18 µM
